Measured values: ChEMBL document CHEMBL4610038, “The synthesis of trifluoromethylated N-nitroaryl-2-amino-1,3-dichloropropane derivatives and their evaluation as potential anti-cancer agents” (Bioorg Med Chem Lett, 2020)

What was measured:
MCF7 [1] = assay: Cytotoxicity against human MCF7 cells assessed as cell viability at 100 uM relative to control; format: functional; settings: read-out: Activity
SK-BR-3 [2] = assay: Cytotoxicity against human SKBR3 cells assessed as reduction in cell viability; format: functional, cell-based
CNE [3] = assay: Cytotoxicity against human CNE1 cells assessed as reduction in cell viability; format: functional, cell-based
ASPC1 [4] = assay: Cytotoxicity against human AsPC1 cells assessed as cell viability at 100 uM relative to control; format: functional; settings: read-out: Activity
MDA-MB-468 [5] = assay: Cytotoxicity against human MDA-MB-468 cells assessed as reduction in cell viability; format: functional, cell-based
NCI-H1299 [6] = assay: Cytotoxicity against human H1299 cells assessed as reduction in cell viability; format: functional, cell-based
SW1990 [7] = assay: Cytotoxicity against human SW1990 cells assessed as reduction in cell viability; format: functional, cell-based
NCI-H1299 [8] = assay: Cytotoxicity against human H1299 cells assessed as cell viability at 100 uM relative to control; format: functional; settings: read-out: Activity
SW48 [9] = assay: Cytotoxicity against human SW48 cells assessed as cell viability at 100 uM relative to control; format: functional; settings: read-out: Activity
[10] = Cytotoxicity against human HK1 cells assessed as cell viability at 100 uM relative to control; format: functional; settings: HK-1, read-out: Activity
SW48 [11] = assay: Cytotoxicity against human SW48 cells assessed as reduction in cell viability; format: functional, cell-based
T47D [12] = assay: Cytotoxicity against human T47D cells assessed as reduction in cell viability; format: functional, cell-based
MRC5 = assay: Cytotoxicity against human MRC5 cells assessed as reduction in cell viability; format: cell-based
Caco-2 [13] = assay: Cytotoxicity against human Caco2 cells assessed as cell viability at 100 uM relative to control; format: functional; settings: read-out: Activity
SH-SY5Y [14] = assay: Cytotoxicity against human SH-SY5Y cells assessed as cell viability at 100 uM relative to control; format: functional; settings: read-out: Activity
A549 [15] = assay: Cytotoxicity against human A549 cells assessed as cell viability at 100 uM relative to control; format: functional; settings: read-out: Activity
SK-BR-3 [16] = assay: Cytotoxicity against human SKBR3 cells assessed as cell viability at 100 uM relative to control; format: functional; settings: read-out: Activity
HCT-116 [17] = assay: Cytotoxicity against human HCT116 cells assessed as cell viability at 100 uM relative to control; format: functional; settings: read-out: Activity
SUNE1 [18] = assay: Cytotoxicity against human SUNE1 cells assessed as reduction in cell viability; format: functional, cell-based
BXPC-3 [19] = assay: Cytotoxicity against human BxPC3 cells assessed as reduction in cell viability; format: functional, cell-based
HT-29 [20] = assay: Cytotoxicity against human HT-29 cells assessed as reduction in cell viability; format: functional, cell-based
BXPC-3 [21] = assay: Cytotoxicity against human BxPC3 cells assessed as cell viability at 100 uM relative to control; format: functional; settings: read-out: Activity
Caco-2 [22] = assay: Cytotoxicity against human Caco2 cells assessed as reduction in cell viability; format: functional, cell-based
MCF-10A = assay: Cytotoxicity against human MCF10A cells assessed as reduction in cell viability; format: cell-based
A549 [23] = assay: Cytotoxicity against human A549 cells assessed as reduction in cell viability; format: functional, cell-based
[24] = Cytotoxicity against human MRC5 cells assessed as cell viability at 100 uM relative to control; format: cell-based; settings: read-out: Activity
MCF7 [25] = assay: Cytotoxicity against human MCF7 cells assessed as reduction in cell viability; format: functional, cell-based
MDA-MB-468 [26] = assay: Cytotoxicity against human MDA-MB-468 cells assessed as cell viability at 100 uM relative to control; format: functional; settings: read-out: Activity
HT-29 [27] = assay: Cytotoxicity against human HT-29 cells assessed as cell viability at 100 uM relative to control; format: functional; settings: read-out: Activity
ASPC1 [28] = assay: Cytotoxicity against human AsPC1 cells assessed as reduction in cell viability; format: functional, cell-based
HCT-116 [29] = assay: Cytotoxicity against human HCT116 cells assessed as reduction in cell viability; format: functional, cell-based
SW1990 [30] = assay: Cytotoxicity against human SW1990 cells assessed as cell viability at 100 uM relative to control; format: functional; settings: read-out: Activity
CNE [31] = assay: Cytotoxicity against human CNE1 cells assessed as cell viability at 100 uM relative to control; format: functional; settings: read-out: Activity
SH-SY5Y [32] = assay: Cytotoxicity against human SH-SY5Y cells assessed as reduction in cell viability; format: functional, cell-based
T47D [33] = assay: Cytotoxicity against human T47D cells assessed as cell viability at 100 uM relative to control; format: functional; settings: read-out: Activity
SUNE1 [34] = assay: Cytotoxicity against human SUNE1 cells assessed as cell viability at 100 uM relative to control; format: functional; settings: read-out: Activity
MDA-MB-231 [35] = assay: Cytotoxicity against human MDA-MB-231 cells assessed as cell viability at 100 uM relative to control; format: functional; settings: read-out: Activity
MDA-MB-231 [36] = assay: Cytotoxicity against human MDA-MB-231 cells assessed as reduction in cell viability; format: functional, cell-based
[37] = Cytotoxicity against human HK1 cells assessed as reduction in cell viability; format: functional, cell-based; settings: HK-1
[38] = Cytotoxicity against human MCF10A cells assessed as cell viability at 100 uM relative to control; format: cell-based, MCF-10A; settings: read-out: Activity

SMILES	viability at 100 µM (MCF7 [1]) [%]	IC50 (SK-BR-3 [2]) [µM]	IC50 (CNE [3]) [µM]	viability at 100 µM (ASPC1 [4]) [%]	IC50 (MDA-MB-468 [5]) [µM]	IC50 (NCI-H1299 [6]) [µM]	IC50 (SW1990 [7]) [µM]	viability at 100 µM (NCI-H1299 [8]) [%]	viability at 100 µM (SW48 [9]) [%]	viability at 100 µM [10] [%]	IC50 (SW48 [11]) [µM]	IC50 (T47D [12]) [µM]	IC50 (MRC5) [µM]	viability at 100 µM (Caco-2 [13]) [%]	viability at 100 µM (SH-SY5Y [14]) [%]	viability at 100 µM (A549 [15]) [%]	viability at 100 µM (SK-BR-3 [16]) [%]	viability at 100 µM (HCT-116 [17]) [%]	IC50 (SUNE1 [18]) [µM]	IC50 (BXPC-3 [19]) [µM]	also measured
O=[N+]([O-])c1ccc(NC(CCl)CCl)cc1	38.8	> 100	> 100	67.7	> 100	> 100	> 100	67.4	58.8	76.9	> 100	> 100	58.3	91.6	65.8	73.5	73.1	79.4	> 100	> 100	IC50 (HT-29 [20]): > 100 µM; viability at 100 µM (BXPC-3 [21]): 82.9%; IC50 (Caco-2 [22]): > 100 µM; IC50 (MCF-10A): > 100 µM; IC50 (A549 [23]): > 100 µM; viability at 100 µM [24]: 44.9%; IC50 (MCF7 [25]): 70.2 µM; viability at 100 µM (MDA-MB-468 [26]): 45.1%; viability at 100 µM (HT-29 [27]): 60.9%; IC50 (ASPC1 [28]): > 100 µM; IC50 (HCT-116 [29]): > 100 µM; viability at 100 µM (SW1990 [30]): 55.1%; viability at 100 µM (CNE [31]): 88.1%; IC50 (SH-SY5Y [32]): > 100 µM; viability at 100 µM (T47D [33]): 65.2%; viability at 100 µM (SUNE1 [34]): 110%; viability at 100 µM (MDA-MB-231 [35]): 72.4%; IC50 (MDA-MB-231 [36]): > 100 µM; IC50 [37]: > 100 µM; viability at 100 µM [38]: 82.7%
O=[N+]([O-])c1ccc(NC(CO)CO)c([N+](=O)[O-])c1	55.5	> 100	> 100	108	> 100	> 100	> 100	89.8	88.2	103	> 100	> 100	> 100	102	86.1	77.4	98.9	81.9	> 100	> 100	IC50 (HT-29 [20]): > 100 µM; viability at 100 µM (BXPC-3 [21]): 104%; IC50 (Caco-2 [22]): > 100 µM; IC50 (MCF-10A): > 100 µM; IC50 (A549 [23]): > 100 µM; viability at 100 µM [24]: 78.9%; IC50 (MCF7 [25]): > 100 µM; viability at 100 µM (MDA-MB-468 [26]): 106%; viability at 100 µM (HT-29 [27]): 89.6%; IC50 (ASPC1 [28]): > 100 µM; IC50 (HCT-116 [29]): > 100 µM; viability at 100 µM (SW1990 [30]): 65.8%; viability at 100 µM (CNE [31]): 102%; IC50 (SH-SY5Y [32]): > 100 µM; viability at 100 µM (T47D [33]): 79.9%; viability at 100 µM (SUNE1 [34]): 106%; viability at 100 µM (MDA-MB-231 [35]): 79.4%; IC50 (MDA-MB-231 [36]): > 100 µM; IC50 [37]: > 100 µM; viability at 100 µM [38]: 105%
O=[N+]([O-])c1ccc(NC(CCl)CCl)c([N+](=O)[O-])c1	25.1	> 100	> 100	106	> 100	> 100	> 100	96.3	55.2	88.9	> 100	85.3	54.1	105	63.6	59.4	71.6	73.1	> 100	> 100	IC50 (HT-29 [20]): > 100 µM; viability at 100 µM (BXPC-3 [21]): 103%; IC50 (Caco-2 [22]): > 100 µM; IC50 (MCF-10A): > 100 µM; IC50 (A549 [23]): > 100 µM; viability at 100 µM [24]: 24.3%; IC50 (MCF7 [25]): 44.3 µM; viability at 100 µM (MDA-MB-468 [26]): 61.3%; viability at 100 µM (HT-29 [27]): 89.1%; IC50 (ASPC1 [28]): > 100 µM; IC50 (HCT-116 [29]): > 100 µM; viability at 100 µM (SW1990 [30]): 69.8%; viability at 100 µM (CNE [31]): 70.5%; IC50 (SH-SY5Y [32]): > 100 µM; viability at 100 µM (T47D [33]): 58.7%; viability at 100 µM (SUNE1 [34]): 68.6%; viability at 100 µM (MDA-MB-231 [35]): 83.4%; IC50 (MDA-MB-231 [36]): > 100 µM; IC50 [37]: > 100 µM; viability at 100 µM [38]: 78.8%
